Assay [1] addresses Cyclin-dependent kinase 2/cyclin A (Homo sapiens, UniProt P24941). The assay can be described thus: Inhibition of human Cyclin-dependent kinase 2 cyclin A3 at 12.5 uM ATP. Type of assay: protein-complex assay.
Assay [2] deals with T1, Cyclin-dependent kinase 2/cyclin A (Homo sapiens) (UniProt P24941+P20248+P78396). Kind of assay: Inhibition of human Cyclin-dependent kinase 2 cyclin A3 at 10 uM. Format: protein-complex assay.
The target in assay [3] is T2, Cyclin-dependent kinase 1/cyclin B1 (Homo sapiens, UniProt P06493+P14635). The assay can be described thus: Inhibition of Cyclin dependent kinase 1-cyclin B1 from starfish oocytes at 10 uM. The following applies: Asteroidea, Oocyte.
T2 sequence (P06493 whole entry, looked up): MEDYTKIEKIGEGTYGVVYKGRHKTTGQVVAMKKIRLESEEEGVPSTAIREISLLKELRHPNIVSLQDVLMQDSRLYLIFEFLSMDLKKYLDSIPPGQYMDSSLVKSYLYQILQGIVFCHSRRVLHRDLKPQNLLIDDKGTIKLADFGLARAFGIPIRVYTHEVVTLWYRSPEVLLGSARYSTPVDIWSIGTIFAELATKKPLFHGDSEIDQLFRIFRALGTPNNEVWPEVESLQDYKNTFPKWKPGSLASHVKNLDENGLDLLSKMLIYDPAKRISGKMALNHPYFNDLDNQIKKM
T2 sequence (P14635 whole entry, looked up): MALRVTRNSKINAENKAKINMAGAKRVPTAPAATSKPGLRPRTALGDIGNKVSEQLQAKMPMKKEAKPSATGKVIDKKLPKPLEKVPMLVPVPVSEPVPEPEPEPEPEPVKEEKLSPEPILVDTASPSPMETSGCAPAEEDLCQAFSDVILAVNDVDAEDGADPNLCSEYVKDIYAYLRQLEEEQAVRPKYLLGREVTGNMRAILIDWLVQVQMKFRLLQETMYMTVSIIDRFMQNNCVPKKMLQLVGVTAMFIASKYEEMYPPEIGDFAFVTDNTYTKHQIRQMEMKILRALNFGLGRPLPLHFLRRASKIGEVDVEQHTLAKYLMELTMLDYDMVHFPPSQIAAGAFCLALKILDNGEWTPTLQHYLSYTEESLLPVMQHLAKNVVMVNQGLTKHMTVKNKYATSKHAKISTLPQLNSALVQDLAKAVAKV
Assay [4] deals with T2, Cyclin-dependent kinase 1/cyclin B1. The assay can be described thus: Inhibition of Cyclin dependent kinase 1-cyclin B1 from starfish oocytes at 100 uM. As to conditions: Asteroidea, Oocyte.
The target in assay [5] is T1, Cyclin-dependent kinase 2/cyclin A (Homo sapiens). Kind of assay: Inhibition of human Cyclin-dependent kinase 2 cyclin A3 at 100 uM. Type of assay: protein-complex assay.

Each structure is given as a SMILES string.

In general, IC50 refers to the concentration that inhibits the measured activity by half. In turn, `Nc1nc(N)c(N=O)c(OCC2CC=CCC2)n1` (configuration not stated) had an IC50 in assay [1] of 5 µM.

As a reminder, the inhibition is the relative decrease from the control value, in per cent. Higher therefore signals a response far below the control. `CO/N=C/c1c(N)nc(N)nc1OCC1CCCCC1`: the inhibition in assay [2] and in assay [3] was 13% in each case.

As for `CCCCCCCOc1nc(N)nc(N)c1N=O`, the figures for the inhibition in assay [2] and in assay [3] were 22% and 17%, respectively.

`Nc1cc(OCC2CC=CCC2)nc(N)n1` (configuration not stated): the inhibition in assay [2] is 8%; in assay [3], 16%.

On to `Nc1nc(N)c(/C=N/O)c(OCC2CCCCC2)n1`, for which the inhibition in assay [4] is 25%; in assay [5], 37%.

Consider `COc1ccc(Nc2nc(N)nc(OCC3CCCCC3)c2N=O)cc1`, for which the inhibition in assay [4] is 7%; in assay [5], 8%.

As to `Nc1nc(N)c(N)c(OCC2CCCCC2)n1`, the inhibition in assay [4] is 40%; in assay [5], 52%.

As to `Nc1nc(NC(=O)OCc2ccccc2)c(N=O)c(OCC2CCCCC2)n1`, the figures for the inhibition in assay [2] and in assay [3] were 11% and 14%, respectively.

For `CC(=O)Nc1nc(N)nc(OCC2CCCCC2)c1N=O`, the values for the inhibition in assay [4] and in assay [5] were 36% and 28%, respectively.

Regarding `COC(=O)Nc1nc(N)nc(OCC2CCCCC2)c1N=O`, the inhibition is 8% in assay [4] and 6% in assay [5].

On to `Nc1nc(N)c(C=O)c(OCC2CCCCC2)n1`, for which the inhibition came out at 43% in assay [2] and 35% in assay [3].

`Nc1nc(N)c(C(O)c2ccccc2)c(OCC2CCCCC2)n1` (configuration not stated): the inhibition in assay [4] turned out to be 4%; in assay [5], 12%.

For the compound `Nc1nc(N)c(C(=O)c2ccccc2)c(OCC2CCCCC2)n1`, the values for the inhibition in assay [2] and in assay [3] were 6% and 21%, respectively.

Consider `Nc1nc(Nc2ccccc2)c(N=O)c(OCC2CCCCC2)n1`, for which the results for the inhibition in assay [4] and in assay [5] were 23% and 47%, respectively.

Consider `CCCCCOc1nc(N)nc(N)c1N=O`, for which the inhibition in assay [2] was found to be 36%; in assay [3], 35%.

`NC(=O)N/N=C/c1c(N)nc(N)nc1OCC1CCCCC1`: the inhibition in assay [4] stood at 61%; in assay [5], 44%.

With `Nc1nc(N)c(/C=N/OCc2ccccc2)c(OCC2CCCCC2)n1`, the inhibition in assay [2] was 3%; in assay [3], 5%.

As for `Nc1cc(OCC2CCCCC2)nc(N)n1`, the inhibition was found to be 7% in assay [2] and 4% in assay [3].

Take `Nc1nc(N)c(N=O)c(OC[C@@H]2NCCC2=O)n1`: the IC50 in assay [1] was 65 µM.

Consider `Nc1nc(N)c(N=O)c(OCc2ccccc2)n1`, for which, in assay [1], the IC50 is 27 µM.

(Values after ChEMBL document CHEMBL1136262, “4-Alkoxy-2,6-diaminopyrimidine derivatives: inhibitors of cyclin dependent kinases 1 and 2” (Bioorg Med Chem Lett, 2003).)
